Values quoted from earlier work, collected in patent US6660719B2, “Inhibiting T-Cell proliferation” (BioCryst Pharmaceuticals Inc., priority 2001, dated 2003).
Like-named read-outs stand apart in the source and are kept apart here.

Columns and labels:
[1] = system: peripheral blood lymphocytes; settings: 2′-deoxyguanosine alone, without PNP inhibition; species not given
[2] = system: CCRF-CEM cells; settings: given with 2′-deoxyguanosine
[3] = system: Molt-4 cells; settings: given with 2′-deoxyguanosine
[4] = system: T-cells; settings: rats; given with 2′-deoxyguanosine
[5] = system: peripheral blood lymphocytes; settings: given to dogs with 2′-deoxyguanosine
[6] = system: peripheral blood lymphocytes; settings: given to rats with 2′-deoxyguanosine

## Nc1nc2c(ncn2[C@H]2C[C@H](O)[C@@H](CO)O2)c(=O)[nH]1 [2′-deoxyguanosine]
[1]
  cell counts (lymphopenia): did not significantly decrease cell counts

## Nc1nc2nc(N)[nH]c2c(=O)[nH]1 [8-Aminoguanine]
[2]
  proliferation of human T-cells in cultures: inhibits the proliferation
[3]
  proliferation of human T-cells in cultures: inhibits the proliferation

## Nc1nc2c(nc(N)n2[C@@H]2O[C@H](CO)[C@@H](O)[C@H]2O)c(=O)[nH]1 [8-Aminoguanosine]
[4]
  levels of 2′-deoxyguanosine triphosphate (dGTP) in T-cells: increased levels
[5]
  peripheral blood lymphocytes: profound fall
[6]
  peripheral blood lymphocytes: profound fall
